Reference: US20100143980A1, “SYNTHESIS OF NOVEL XYLOSIDES AND POTENTIAL USES THEREOF” (priority 2007, published 2010)
“Also recorded” adds a separate entry of the source.

The molecules below were run on CHO pgsA-745 (assay: Priming of glycosaminoglycan synthesis by xylosides, 35S-sulfate incorporation into purified HS/CS). Details: 1 uM.
Assay type: cell-based
Procedure: To determine whether the xylosides are able to prime the synthesis of glycosaminoglycans in cells in vitro experiments were performed using CHO pgsA-745. The cells were treated with appropriate primers in the presence of 35S—Na2SO4, glycosaminoglycans were purified and analyzed as described below. 1×10^4 cells were plated per well in Ham's/F12 complete growth medium in a 24-well plate. The cells were incubated at 37° C. in a humidified incubator for 24 hours to a confluency of about 50%. The cells were washed with sterile PBS and replaced with 450 μL ham's/F12 containing 10% dialyzed FBS. Solutions containing a specific primer at 100× the final concentration were prepared. 5 μL of appropriate 100× primer were added to various wells to yield a final concentration of 100 μM. 50 μCi of 35S—Na2SO4 was also added to each well as tracer. The 24-well plates were placed back in the 37° C. incubator for 24 hours before the addition of 100 μL 6× pronase solution followed by incubation at 37° C. overnight.
(§1) To determine whether the xylosides are able to prime the synthesis of glycosaminoglycans in cells, in vitro experiments were performed using CHO pgsA-745. The cells were treated with appropriate primers in the presence of 35S—Na2SO4, glycosaminoglycans were purified and analyzed as described below. 1×10^4 cells were plated per well in Ham's/F12 complete growth medium in a 24-well plate. The cells were incubated at 37° C. in a humidified incubator for 24 hours to a confluency of about 50%. The cells were washed with sterile PBS and replaced with 450 uL ham's/F12 containing 10% dialyzed FBS. Serial dilutions of the primers at 100× the final concentration were prepared. 5 uL of appropriate 100× primer were added to various wells to yield a final concentration of 1, 10, 100 and 1000 uM respectively. 50 uCi of 35S—Na2SO4 was also added to each well as tracer. The 24-well plates were placed back in the 37° C. incubator for 24 hours before the addition of 100 uL 6× pronase solution followed by incubation at 37° C. overnight.
The entire contents of the wells were transferred to a microcentrifuge tube and subjected to centrifugation at 16,000×g for 5 minutes. The supernatant was transferred to a fresh tube and half-a-volume of 0.016% Triton X-100 was added. The diluted supernant was loaded on 0.2 mL DEAE-sepharose column pre-equilibrated with 2 mL of 20 mM NaOAc buffer pH 6.0 containing 0.1 M NaCl and 0.01% Triton X-100 and the column was washed with 4 mL of buffer described above. The bound HS/CS was eluted using 1.2 mL elution buffer, 20 mM NaOAc, pH 6.0, containing 1 M NaCl. The extent of priming by the various xyloside primers was evaluated by quantifying the 35S-radioactivity incorporated in to the purified HS/CS elute by liquid scintillation. 50 uL of the various elutes were added to 5 mL of scintillation cocktail and the vials were counted in a scintillation counter in triplicate. The amount of radioactivity corresponds to the total glycosaminoglycan synthesis due to the primer.
as §1, with “a) To” for “To”, “cells” for “cells,”, “^35S—Na2SO4,” for “35S—Na2SO4,”, “37 C” for “37° C.”, “^35S—Na2SO4” for “35S—Na2SO4”, “The 24-well plates were placed back in the 37° C. incubator for 24 hours before the addition of 100 uL 6× pronase solution followed by incubation at 37° C. overnight.” left out

**Q.** For `O=S(=O)(c1ccccc1)[C@@H]1OC[C@@H](O)[C@H](O)[C@H]1O` [sulfone-phenyl xyloside], which “priming ability relative to the next highest primer at 1 uM” value is on record?
**A.** four times that of the next highest priming activity seen at this concentration

Same assay, conditions: 1 uM primer

**Q.** How did the “GAG priming activity at 1 uM (in words)” value turn out when `O=S(=O)(c1ccccc1)[C@@H]1OC[C@@H](O)[C@H](O)[C@H]1O` [sulfone-phenyl xyloside] was run?
**A.** better activity at concentration as low as 1 uM; also recorded: highest activity than any of the primers

Same assay, conditions: 10 uM primer

**Q.** For `O=S(=O)(c1ccccc1)[C@@H]1OC[C@@H](O)[C@H](O)[C@H]1O` [sulfone-phenyl xyloside], which “GAG priming activity at 10 uM (in words)” value is on record?
**A.** significantly higher priming activity than other xylosides

**Q.** For `O[C@@H]1[C@@H](O)[C@H](Sc2ccccc2)OC[C@H]1O` [thiophenyl, beta-D-thiophenyl xyloside, reference compound], which “GAG priming activity at 10 uM (in words)” value is on record?
**A.** significantly higher priming activity than other xylosides

**Q.** Which “GAG priming activity at 10 uM (in words)” value does the source give for `OC1COC(n2cc(COc3ccc4c(c3)CCCC4)nn2)C(O)C1O` (stereo not shown) [tetrahydronaphthyl] here?
**A.** significantly higher priming activity than other xylosides

Same assay, conditions: 100 uM

**Q.** How did the “priming activity relative to the thio-phenyl and thio-pyridyl primers” value turn out when `O=S(=O)(c1ccccc1)[C@@H]1OC[C@@H](O)[C@H](O)[C@H]1O` [sulfone-phenyl xyloside] was run?
**A.** about 60%

Same assay, conditions: CHO pgsA-745 cells; concentration not given

**Q.** With `OC1COC(n2cc(COc3ccccc3)nn2)C(O)C1O` (stereo not shown) [compound 8] as the molecule, how does the “GAG priming ability (in words, relative to the comparator named)” value read?
**A.** prime GAGs albeit in lesser quantities than their respective β-anomers

**Q.** How did the “GAG priming ability (in words, relative to the comparator named)” value turn out when `OC1COC(n2cc(COc3ccc(-c4ccc(Br)cc4)cc3)nn2)C(O)C1O` (stereo not shown) [compound 17] was run?
**A.** decreased

**Q.** `OC1COC(n2cc(COc3cccnc3)nn2)C(O)C1O` (stereo not shown) [compound 6] was tested. Which “GAG priming ability (in words, relative to the comparator named)” value did it give?
**A.** prime GAGs albeit in lesser quantities than their respective β-anomers

**Q.** How did the “GAG priming ability (in words, relative to the comparator named)” value turn out when `COc1ccccc1-c1cn(C2OCC(O)C(O)C2O)nn1` (stereo not shown) [compound 32] was run?
**A.** primed nearly two times the amount of GAG chains compared to the unsubstituted xyloside 29

**Q.** For `COc1ccc(-c2cn(C3OCC(O)C(O)C3O)nn2)cc1` (stereo not shown) [compound 33], which “GAG priming ability (in words, relative to the comparator named)” value is on record?
**A.** primed one-half the amount of GAG chains compared to the unsubstituted xyloside 29

**Q.** `OC1COC(n2cc(-c3ccccc3)nn2)C(O)C1O` (stereo not shown) [compound 29] was tested. Which “GAG priming ability (in words, relative to the comparator named)” value did it give?
**A.** decreased the priming ability by two fold

**Q.** For `OC1COC(n2ccnn2)C(O)C1O` (stereo not shown) [compound 1], which “GAG priming ability (in words, relative to the comparator named)” value is on record?
**A.** primed slightly better than the well known β-O-naphthyl xyloside

**Q.** How did the “GAG priming ability (in words, relative to the comparator named)” value turn out when `OC1COC(n2cc(COCc3ccc(F)cc3)nn2)C(O)C1O` (stereo not shown) [compound 24] was run?
**A.** down regulates the priming ability

**Q.** For `OC1COC(n2cc(COc3ccc4cc(Br)ccc4c3)nn2)C(O)C1O` (stereo not shown) [compound 19], which “GAG priming ability (in words, relative to the comparator named)” value is on record?
**A.** completely abolished the priming activity

**Q.** How did the “GAG priming ability (in words, relative to the comparator named)” value turn out when `OC1COC(n2ccnn2)C(O)C1O` (stereo not shown) [compound 2] was run?
**A.** prime GAGs albeit in lesser quantities than their respective β-anomers

**Q.** Which “GAG priming ability (in words, relative to the comparator named)” value does the source give for `COc1ccc(OCc2cn(C3OCC(O)C(O)C3O)nn2)cc1` (stereo not shown) [compound 9] here?
**A.** marginal effect on the priming ability

**Q.** How did the “GAG priming ability (in words, relative to the comparator named)” value turn out when `OC1COC(n2cc(COc3ccc4c(c3)CCCC4)nn2)C(O)C1O` (stereo not shown) [compound 20] was run?
**A.** did not significantly influence priming activity

**Q.** With `OCc1cccc(COCc2cn(C3OCC(O)C(O)C3O)nn2)c1` (stereo not shown) [compound 25] as the molecule, how does the “GAG priming ability (in words, relative to the comparator named)” value read?
**A.** down regulates the priming ability

**Q.** Which “GAG priming ability (in words, relative to the comparator named)” value does the source give for `OC1COC(n2cc(COCc3ccccc3)nn2)C(O)C1O` (stereo not shown) [compound 23] here?
**A.** prime GAGs albeit in lesser quantities than their respective β-anomers

**Q.** Which “GAG priming ability (in words, relative to the comparator named)” value does the source give for `OC1COC(n2cc(COc3cc4ccccc4c4ccccc34)nn2)C(O)C1O` (stereo not shown) [compound 21] here?
**A.** primed less GAG chains than the less hydrophobic xyloside (Table 1A: compound 18) did

**Q.** For `COc1ccc(OCc2cn(C3OCC(O)C(O)C3O)nn2)cc1` (stereo not shown) [compound 10], which “GAG priming ability (in words, relative to the comparator named)” value is on record?
**A.** prime GAGs albeit in lesser quantities than their respective β-anomers

**Q.** With `COc1cc(OC)cc(-c2cn(C3OCC(O)C(O)C3O)nn2)c1` (stereo not shown) [compound 34] as the molecule, how does the “GAG priming ability (in words, relative to the comparator named)” value read?
**A.** showed decrease priming compared to the unsubstituted xyloside 29

Same assay, conditions: fold less efficient than compound 7

**Q.** How did the “priming efficiency compared to phenyl substituted xyloside compound 7” value turn out when `OC1COC(n2cc(COc3cccnc3)nn2)C(O)C1O` (stereo not shown) [compound 5] was run?
**A.** 10 times

Same assay, conditions: relative to unsubstituted phenyl xyloside

**Q.** With `O=[N+]([O-])c1ccc(OCc2cn(C3OCC(O)C(O)C3O)nn2)cc1` (stereo not shown) [compound 15] as the molecule, how does the “loss of priming activity by para nitro substitution” value read?
**A.** approximately 30%

The molecules below were run on CHO pgsA-745 (assay: Composition of HS and CS in the primed glycosaminoglycans (Chondroitinase AC digestion)). Details: share of HS in total GAG.
Assay type: cell-based
Procedure: To determine the composition of the HS and CS in the glycosaminoglycans synthesized, a small aliquot of the elute (300 uL) was diluted 10-fold and digested using Chondroitinase AC. The sample was subjected to precipitation to remove the disaccharide in the presence of cold chondroitin sulfate A and scintillation counted. This gives the amount of HS primed on the xylosides and the difference in the radioactivity corresponds to the amount of chondroitin sulfate in the purified glycoaminoglycan elute.
b) To determine the composition of the HS and CS in the glycosaminoglycans synthesized, a small aliquot of the elute (300 uL) was diluted 10-fold and digested using Chondroitinase AC. The sample was subjected to precipitation to remove the disaccharide in the presence of cold chondroitin sulfate A and scintillation counted. This gives the amount of HS primed on the xylosides and the difference in the radioactivity corresponds to the amount of chondroitin sulfate in the purified glycoaminoglycan elute.

**Q.** For `OC1COC(n2cc(COc3ccc(F)cc3)nn2)C(O)C1O` (stereo not shown) [fluoro-substituted derivative], which “composition of HS in primed glycosaminoglycans (in words)” value is on record?
**A.** Half

**Q.** How did the “composition of HS in primed glycosaminoglycans (in words)” value turn out when `OC1COC(n2cc(COc3ccccc3)nn2)C(O)C1O` (stereo not shown) [triazole-O-phenyl] was run?
**A.** Half

**Q.** For C-(2-naphthol)-xyloside, which “composition of HS in primed glycosaminoglycans” value is on record?
**A.** −72%
